Tests used:
Format in all cases: physicochemical
[1] = Observation of foam formation of the emulsion / diluted beverage
[2] = Turbidity of the emulsion before and after dilution with water, by turbidity meter; details: dilution factor not printed at the place
Protocol: A stable, optically clear, beverage is desirably obtained. Homogenization is carried out with a pressure of between 300 bar and 1500 bar, preferably about 800 bar. The homogenization pressure may be applied for between 1 and 5 passes. The ratio of emulsifier to carrier oil in the emulsion may be containing an excess amount of emulsifier in oil, which could be used to make an optically clear beverage. An optimal concentration of between 0 and 3 times more emulsifier in contrast to the oil phase will be tested. Cloudy beverages have a high turbidity, e.g., between 200 and 300 NTU, or even as high as 2,000 NTU. The aim is to develop a beverage with a turbidity<15 NTU. After production of the treatments, the turbidity will therefore be measured by a turbidity meter.
• 1. Before starting the experiment, the most optimal solubilizing phase of the emulsifier (organic or in aqueous phase) may be investigated. This could influence the droplet size and is different for every emulsifier (the movement of the emulsifier from the oil phase into the aqueous phase may be important in the formation of nano emulsions by this method). • 2. Prepare a pre-emulsion comprising the emulsifier in water or oil phase in order to fully dissolve the emulsifier. […] The concentrated emulsion may especially be made into a ready-to-drink clear beverage by diluting it with water. […]

[3] = Observation of physical stability: viscosity, phase separation, storage / shelf life; details: before or after homogenization or on storage
Description: • 1. Before starting the experiment, the most optimal solubilizing phase of the emulsifier (organic or in aqueous phase) may be investigated. This could influence the droplet size and is different for every emulsifier (the movement of the emulsifier from the oil phase into the aqueous phase may be important in the formation of nano emulsions by this method). • 2. Prepare a pre-emulsion comprising the emulsifier in water or oil phase in order to fully dissolve the emulsifier. When mixing the emulsifier into the solubilizing phase, an Ultra turrax is used at 10000 rpm (stand 37) for 3 minutes. If needed, the emulsifier and solubilized phase could be heated prior to mixing. • 3. Mix the pre-emulsion by slowly adding the oil phase to the aqueous phase while mixing with an Ultra turrax at 12000 rpm (stand 40) for 5 min). • 4. Let the pre-emulsion mixture rest for 1 hour. • 5. Homogenize the emulsion with a homogenizer preferably between 300-1200 bar, and between 3 and 5 passes. • 6. Collect the sample and measure the temperature directly. • 7. Allow it to cool completely before measuring the turbidity. • 8. The concentrated emulsion may especially be made into a ready-to-drink clear beverage by diluting it with water. Therefore, dilute a small amount of the obtained concentrated emulsion from step 6 with water to observe the clarity and turbidity of the final product. […]

In the case of Sucrose monostearate, the Foam formation [1] is reported as “no foam formation”, the Turbidity [2] is reported as over 15 NTU and the “Viscosity / phase separation / storage behaviour” value [3] is reported as “became extremely viscous after a couple days of storage”.

Reference: patent US20250090555A1, “METHOD FOR PRODUCING A CBD […] OR SOLID AND USE THEREOF” (Food4Innovations Ventures B.V., priority 2022, published 2025)
